Tested on: Malassezia furfur
Test: Zone of inhibition, disc diffusion method
Assay type: cell-based
Details: antimicrobial active alone, 37° C., 48 hrs; for zone of inhibition at […] strength / zone of inhibition at 0.5 % strength / zone of inhibition at 1 % strength / zone of inhibition at 2 % strength: Malassezia furfur; for zone of inhibition at […] strength: 0.25 % w/w
Procedure: The antimicrobial efficacy was determined by measuring zone of inhibition using disc diffusion method against E. Coli, Malassezia furfur, Pseudomonas, Aspergillus niger, Staphylococcus and Candida. […] The culture plates were incubated at 37° C. for 48 hrs and anti-microbial activity was evaluated by observing an area of no growth around the disc. An area of no growth around the swatch is known as a zone of inhibition.

| SMILES | Zone of inhibition (0.5 % w/w) | Zone of inhibition (1 % w/w) | Zone of inhibition (2 % w/w) | Zone of inhibition ([…] w/w) | zone of inhibition at […] strength | zone of inhibition at 0.5 % strength (0.5 % w/w) | zone of inhibition at 1 % strength (1 % w/w) | zone of inhibition at 2 % strength (2 % w/w) |
| --- | --- | --- | --- | --- | --- | --- | --- | --- |
| Cc1cc(CC(C)CC(C)(C)C)n(O)c(=O)c1.NCCO (stereo not drawn) [Octopirox] | 14 mm | 18 mm | 20 mm | 10 mm |  |  |  |  |
| CC(C)(C)C(=O)C(Oc1ccc(Cl)cc1)n1ccnc1 (stereo not drawn) [Climbazole] |  |  |  |  | 20 mm | 40 mm | 40 mm | 42 mm |
| CC(=O)N1CCN(c2ccc(OCC3COC(Cn4ccnc4)(c4ccc(Cl)cc4Cl)O3)cc2)CC1 (stereo not drawn) [Ketoconazole] |  |  |  |  | 40 mm | 40 mm | 40 mm | 40 mm |
| O=C(O)c1ccccc1O [Salicylic Acid] |  |  |  |  |  |  | 4 mm | 6 mm |
| Cc1cc(C2CCCCC2)n(O)c(=O)c1 [Ciclopirox Olamine] |  |  |  |  | 18 mm | 18 mm | 20 mm | 22 mm |

From patent US20190350200A1, “SYNERGISTIC ANTIMICROBIAL COMPOSITIONS” (JUBILANT LIFE SCIENCES LIMITED, priority 2016, published 2019)
